The text below walks through data of patent EP4574175A1, “PRODRUG FOR ANTI-AGING RELATED DISEASES AND USE METHOD THEREFOR” (BEIJING SUNCELL BIO-MEDICAL CO., LTD., priority 2022, dated 2024).

Series [1] concerns non-senescent A549 cells. The experiment in a line: Cell killing activity assay (CCK-8), Example 7. The class given is cell-based, human. Conditions: 25 µM. Here is the method:
(§1) Preparation of the cell plates: The non-senescent, and the induced senescent HEF cells and A549 cells were taken respectively, digested with trypsin, and centrifuged at 1000 rmp for 5 minutes. The supernatants were removed, and the cells were resuspended in fresh DMEM medium containing 10% foetal bovine serum for counting. The cell density was adjusted so that the density of the non-senescent cells was at 4000 cells/100 µL and the density of the senescent cells was at 7000 cells/100 µL. The cell suspension was added to the 96-well transparent cell culture plates at 100 µL per well. Note that the edge wells of the 96-well plate were not used for the test wells, and 300 µL PBS is added separately to reduce the medium evaporation. The cell-spread 96-well plates were put back into the incubator at 37°C for the overnight incubation until the cells adhered to the wall.
(§2) Formulation of the drug concentration gradients: After the cells adhered to the wall on the second day, the small molecule compounds (d-12, d-11, and d-4) to be tested for activity are ready to be added. […] 3 parallel replicate wells were set up for each test drug concentration. The 96-well plate was put back into the incubator at 37°C, and the cell survival was tested after three days.
(§3) Detection of the cell survival after the drug treatment using the CCK-8 method: Three days after the addition of the drug, the well plate was removed, the supernatant was discarded, and 100 µL of the pre-prepared CCK-8 working solution was added to each well. The CCK-8 working solution was obtained by diluting the CCK8 stock solution (C0041, Beyotime) with the serum-free DMEM medium in 10-fold volume. The 96-well plate added with the CCK-8 working solution was put back to the incubator at 37°C and incubated for 0.5-2 hours. The plate was taken out to determine the absorbance value (OD value) of each well at the wavelength of 450 nm. The cell viability in each experimental group was calculated. The following formula was used: the relative cell viability (%) = […] x 100 %.

Series [2] relates to non-senescent HEF cells. Kind of series: Cell killing activity assay (CCK-8), Example 7. It is filed as cell-based, human. Conditions: 25 µM. Here is the method:
as §1, §2, §3

Series [3] has as its system senescent HEF cells. The experiment in a line: Cell killing activity assay (CCK-8), Example 7. The class given is cell-based, human. The conditions noted are these: HEF-induced senescence cell model, up to 25 µM, three days. Here is the method: as §1, §2, §3
In series [4] the test system is senescent A549 cells. Kind of series: Cell killing activity assay (CCK-8), Example 7. The conditions noted are these: three days; for selective killing of the senescent cells: A549-induced senescence cell model, up to 25 µM. The class given is cell-based, human. Here is the method:
as §1, §2, §3

Series [5] deals with induced senescent A549 cell. Kind of series: In vitro compound screening, cell viability test (CCK-8). It is filed as cell-based, human. The conditions noted are these: for senescent cell killing activity and selectivity in vitro (screening): induced senescent A549 cell model, Figure 1A; for killing activity on the senescent cells compared with ABT-263: A549-CDDP, Figure 1B.
The subject of series [6] is induced senescent HEF cell. Described as above. It is filed as cell-based, human. The conditions noted are these: HEF-ETO, Figure 1C.
Experimental: Briefly, the human embryonic skin tissues and the fetal lung tissues obtained from the aborted tissues with the patient's informed consent were minced with the forcep and incubated in 1 mg/ml collagenase IV at 37°C for 1-2 hours. After the enzyme treatment, the cells were collected by centrifugation and resuspended in HEF medium (Dulbecco's modified Eagle medium (DMEM, Gibco) containing 10% fetal bovine serum (FBS, Ausbian), 1% GlutaMAX (Gibco), 1% non-essential amino acids (NEAA, Gibco) and 1% penicillin/streptomycin (Gibco). Gibco). Cells were plated on the 10 cm tissue culture dishes and grown in 10% FBS DMEM. […] They were passaged and cryopreserved according to Lonza's method. A549 cells, BJ cells and MRC5 cells were purchased from ATCC and cultured in DMEM medium containing 10% fetal bovine serum (FBS, Ausbian), and 1% penicillin/streptomycin (Gibco).
Cell Counting Kit-8 (CCK-8) assay was used to assess the cell viability. The senescent and non-senescent cells or chondrocytes were seeded into the 96-well plates and cultured overnight. The cells were then treated with control (0.05% DMSO) or different concentrations of the drug to be tested. […] Absorbance was measured at the wavelength of 450 nm.
The test system of series [7] is platelets. Kind of series: In vivo platelet toxicity test. Details: species or system C57 mice. The conditions noted are these: multiple rounds i.p. As to the method: (§4) All drugs were mixed in 85% physiological saline, 5% DMSO (Sigma, D8418) and 10% Solutol HS 15 (Sigma, 42966), and administered to mice by intraperitoneal (i.p.) injection. To treat the bleomycin-injured young mice, A13 (2 mg/kg), A13bGa1 (5 mg/kg), or an empty vehicle control was administered three consecutive days per week for four weeks. A1331852 (abbreviated as A13) was purchased from MCE.
(§5) A single administration of A13 or A13bG was performed. Female 5-6 week old C57 mice were treated with a single intraperitoneal injection. A13 and A13bG were administered in three different dose groups of 2, 5, and 20 mg/kg. Approximately 50 µl of blood was collected from each mouse at different time points into the EDTA tubes (RAM Scientific) by means of inner canthal blood extraction, and analyzed using a haematology analyzer for a blood routine examination and a platelet counting. Multiple administrations of A13 or A13bG were performed. Female 5-6 week old C57 mice were treated with multiple intraperitoneal injections. A13 and A13bG were administered in three different dose groups of 2, 5 and 20 mg/kg, three consecutive days per week, followed by a 4-day withdrawal for 3 weeks. The time points of administration were in the afternoon of days 0, 1, 2, 7, 8, 9, 14, 15, and 16, and the time points of blood collection and testing were in the morning of days 1, 3, 5, 8, 10, 12, 15, 17, and 19, respectively.
For a blood routine examination, 50 µl of fresh blood was collected from each mouse and immediately mixed with EDTA. Blood samples were analyzed by Celltac Alpha MEK-6400 series haematology analyzer (Nihon Kohden, MEK-6400). Data were expressed as the number of different blood cells or platelets per µl of blood. For the serum biochemical analysis, the blood samples were collected, coagulated for 2 hours at room temperature or overnight at 4°C, and then centrifuged (1000 g, 10 minutes) to obtain serum. A 200 µl of serum was aliquoted and analyzed for alanine aminotransferase (ALT), aspartate aminotransferase (AST), uric acid (UA), and creatinine (CREA) by a chemistry analyzer (Mindray, BS-350E).

Series [8] in a line: Daily observation of mice during multiple administration. It is filed as in vivo, C57 mice. Conditions: after 3 consecutive rounds of administration. Here is the method: as §5
The test system of series [9] is mouse model of Bleomycin-induced pulmonary fibrosis. Kind of series: Bleomycin-induced pulmonary fibrosis mouse model. The class given is in vivo, C57 mice. The conditions noted are these: A13 2 mg/kg. As to the method:
as §4
Bleomycin was purchased from Selleck. […]. Drug treatment was initiated four days after modelling, and the drug was administered three consecutive days per week for four consecutive weeks, after which the mice were executed for material collection.
All animals (including those found dead, dying, and euthanised) were autopsied, and the lung tissues were preserved. The lungs were separated, the fat and other tissues were removed, the surface fluid was absorbed using a filter paper, and the whole lungs were weighed (those found dead, dying, and euthanised) for calculation of the lung weight index. The right lung and bronchiole were fixed in 10% neutral buffered formalin solution, embedded in paraffin, sectioned, prepared into slices, and stained with HE for a histopathological and morphological observation of the lung. The degree of the lesions such as the inflammatory cell infiltration in the lung tissue were graded according to a 4-grade classification (slight, mild, moderate, severe) using a standard terminology for diagnosis and classification. The left lung tissue was clipped and stored temporarily below -60°C. Lung weight index(%) = lung weight/body weight × 100%. [formula]
Masson trichrome stain kit (Solarbio, G1340) was used to detect fibrosis in the lung tissue. The formalin-fixed, and paraffin-embedded lung sections were dewaxed with xylene, and then rehydrated with 100% alcohol, 95% alcohol and distilled water. The sections were then stained according to the manufacturer's instructions. Afterwards, the sections were rapidly dehydrated with 95% alcohol and 100% alcohol, cleaned with xylene and covered with the coverslips. […]

The mark [10] stands for this setting: lung HE, number of animals of 6, A13bGa1 5 mg/kg.
The mark [11] stands for this setting: number of animals of 6, A13bGa1 5 mg/kg.

For `CC(=O)OC[C@H]1O[C@@H](Oc2ccc(C(Cc3cn(CCCN4CCOCC4)nn3)OC(=O)c3nc(N4CCc5cccc(C(=O)Nc6nc7ccccc7s6)c5C4)ccc3-c3cnn(CC45CC6CC(CC(C6)C4)C5)c3C)cc2[N+](=O)[O-])[C@H](OC(C)=O)[C@@H](OC(C)=O)[C@H]1OC(C)=O` (stereo partly drawn) [d-11], the “killing of the non-senescent cells at the highest concentration” value in [1] and in [2] was “none of the three molecules killed the non-senescent cells” throughout. For the same compound, the “selective killing of the senescent cells” value in series [3] and in series [4] was “selective killing of the senescent cells” throughout.
With `Cc1ncsc1-c1ccc(CNC(=O)[C@@H]2C[C@@H](O)CN2C(=O)[C@@H](NC(=O)COCCOCCOCCNC(=O)C[C@@H]2N=C(c3ccc(Cl)cc3)c3c(sc(C)c3C)-n3c(C)nnc32)C(C)(C)C)cc1` [MZ1], the “senescent cell killing activity and selectivity in vitro (screening)” value in series [5] is reported as “better in vitro killing activity”.
As for `Cc1sc2c(c1C)C(c1ccc(Cl)cc1)=N[C@@H](CC(=O)Nc1ccc(OCCOCCOCCOCCNc3cccc4c3C(=O)N(C3CCC(=O)NC3=O)C4=O)cc1)c1nnc(C)n1-2` (stereo partly drawn) [ARV825], in series [5], the “senescent cell killing activity and selectivity in vitro (screening)” value is on record as “better in vitro killing activity”.
A word on the IC50: it is the concentration that inhibits the measured activity by half. A lower IC50 goes with greater potency. For the compound `Cc1c(-c2ccc(N3CCc4cccc(C(=O)Nc5nc6ccccc6s5)c4C3)nc2C(=O)OC(Cc2cn(CCCN3CCOCC3)nn2)c2ccc(O[C@@H]3O[C@H](CO)[C@H](O)[C@H](O)[C@H]3O)c([N+](=O)[O-])c2)cnn1CC12CC3CC(CC(C3)C1)C2` (stereo partly drawn) [d-12], the “killing of the non-senescent cells at the highest concentration” value in series [1] and in [2] was “none of the three molecules killed the non-senescent cells” in each case. Further, the “selective killing of the senescent cells” value in series [3] and in series [4] was “selective killing of the senescent cells” throughout. Also, in series [4] (Cisplatin-induced senescent A549 cells, CCK-8), the IC50 is roughly 6.9 µM.
For `CN(C)CC#Cc1ccc(OCCCc2sc(N3CCc4cccc(C(=O)Nc5nc6ccccc6s5)c4C3)nc2C(=O)O)c(F)c1` [A1155463], the “killing activity on the senescent cells compared with ABT-263” value (“killing activity … compared with ABT-263” below) in series [6] was “higher than that of the classical small molecule inhibitor ABT-263”. In addition, in series [5], the “killing activity … compared with ABT-263” value was “higher than that of the classical small molecule inhibitor ABT-263”; the “senescent cell killing activity and selectivity in vitro (screening)” value is “good senescent cell killing activity and selectivity in vitro”.
With `Cc1sc2c(c1C)C(c1ccc(Cl)cc1)=N[C@@H](CC(=O)NCCCCCCCCNC(=O)COc1cccc3c1C(=O)N(C1CCC(=O)NC1=O)C3=O)c1nnc(C)n1-2` (stereo partly drawn) [dBET6], the “senescent cell killing activity and selectivity in vitro (screening)” value in series [5] is “better in vitro killing activity”.
On to `Cc1c(-c2ccc(N3CCc4cccc(C(=O)Nc5nc6ccccc6s5)c4C3)nc2C(=O)O)cnn1CC12CC3CC(CC(C3)C1)C2` [A13, 3-[1-(adamantan-1-ylmethyl)-5-methylpyrazol-4-yl]-6-{8-[(1,3-benzothiazol-2-yl)carbamoyl]-3,4-dihydro-1H-isoquinolin-2-yl}pyridine-2-carboxylic acid], for which the “killing activity … compared with ABT-263” value in series [6] was “higher than that of the classical small molecule inhibitor ABT-263”. Besides, the “toxic effects on the platelets” value in series [7] (3 consecutive days per week for 3 weeks, 2 mg/kg) is given as “very serious toxic effects on the platelets”. Further, the “toxic effects on the platelets” value in series [7] (3 consecutive days per week for 3 weeks, 2, 5 and 20 mg/kg) was “strong destructive effects on the platelets”. For the same compound, in series [5], the “killing activity … compared with ABT-263” value is reported as “higher than that of the classical small molecule inhibitor ABT-263”; the “senescent cell killing activity and selectivity in vitro (screening)” value is “good senescent cell killing activity and selectivity in vitro”. The “mice depilated, dispirited and in poor state” value in series [8] (5 mg/kg i.p.) is 2/4. Also, in series [8] (20 mg/kg i.p.), the “mice depilated, dispirited and in poor state” value was 2/4. For the same compound, the “pathological manifestations of the pulmonary fibrosis (Masson staining)” value in series [9] (A13bGa1 5 mg/kg i.p.) is listed as “not improved”. Moreover, in series [9] (A13bGa1 5 mg/kg i.p., 3 consecutive days per week for 4 weeks), the lung index result is “no improvement”. In addition, in series [9] (A13bGa1 5 mg/kg i.p., HE staining), the “inflammation and consolidation of the mouse lungs (pathological sections)” value is “no improvement was observed”. Also, in series [9] (setting [10]), the “Bleeding, alveolar/interstitial: mild (++)” value turned out to be 2; the “Bleeding, alveolar/interstitial: moderate (+++)” value is on record as 0; the “Bleeding, alveolar/interstitial: negative (-)” value came out at 2; the “Bleeding, alveolar/interstitial: slight (+)” value stood at 2. In [9] (setting [10]), the “Exudative oedema, alveolar: mild (++)” value is reported as 1; the “Exudative oedema, alveolar: moderate (+++)” value is on record as 1; the “Exudative oedema, alveolar: negative (-)” value came to 0; the “Exudative oedema, alveolar: severe (++++)” value is given as 3. For the same compound, in series [9] (setting [10]), the “Exudative oedema, alveolar: slight (+)” value is recorded as 1; the “The infiltration of the inflammatory cells: mild (++)” value is 2; the “The infiltration of the inflammatory cells: moderate (+++)” value stood at 1; the “The infiltration of the inflammatory cells: negative (-)” value worked out at 1. In series [9] (setting [10]), the “The infiltration of the inflammatory cells: slight (+)” value was 2; the “Thickening and consolidation of the pulmonary septum: mild (++)” value came out at 2; the “Thickening and consolidation of the pulmonary septum: moderate (+++)” value turned out to be 1; the “Thickening and consolidation of the pulmonary septum: negative (-)” value was determined as 0. In series [9] (setting [10]), the “Thickening and consolidation of the pulmonary septum: severe (++++)” value turned out to be 2; the “Thickening and consolidation of the pulmonary septum: slight (+)” value is given as 1. In addition, in series [9] (setting [11]), the “degree of fibrosis in the lungs using Masson staining: Moderately strong positive (+++)” value stood at 1, the “degree of fibrosis in the lungs using Masson staining: extremely strong positive (++++)” value stood at 2, the “degree of fibrosis in the lungs using Masson staining: moderately positive (++)” value is listed as 1 and the “degree of fibrosis in the lungs using Masson staining: not positive (-)” value was 0. The “degree of fibrosis in the lungs using Masson staining: weakly positive (+)” value in series [9] (setting [11]) was determined as 2.
